{"source": "BindingDB's records for doi:10.1021/jm950372w", "about": "(Rotta Research Laboratorium, 1996)", "key": {"[1]": {"target": "Gastrin/cholecystokinin type B receptor (Oryctolagus cuniculus)", "assay": "In vitro inhibition of gastrin-induced [Ca2+] cytosolic elevation in isolated rabbit parietal cells"}, "[2]": {"target": "Gastrin/cholecystokinin type B receptor (Cavia porcellus)", "assay": "Inhibition of binding of [3H]N-Me-N-Leu-CCK-8 to cholecystokinin type B receptor in guinea pig brain cortex"}}, "note": "Where a name gives a salt, the structure may show the parent alone."}
{"smiles": "O=C(O)CC[C@H](NC(=O)CCC(NC(=O)c1cc(Cl)cc(Cl)c1)C(=O)N1CCC2(CCCC2)CC1)C(=O)Nc1ccc2c(c1)CCC2", "note": "(stereo partly drawn) [(S)-4-[5-(8-Aza-spiro[4.5]dec-8-yl)-4-(3,5-dichloro-benzoylamino)-5-oxo-pentanoylamino]-4-(indan-5-ylcarbamoyl)-butyric acid]", "values": [{"measurement": "IC50", "setting": "[1]", "result": 118, "unit": "nM"}, {"measurement": "IC50", "setting": "[2]", "result": 727, "unit": "nM"}]}
{"smiles": "O=C(O)CC[C@H](NC(=O)CCC(NC(=O)c1cc(Cl)cc(Cl)c1)C(=O)N1CCC2(CCCC2)CC1)C(=O)Nc1cccc2ccccc12", "note": "(stereo partly drawn) [(S)-4-[5-(8-Aza-spiro[4.5]dec-8-yl)-4-(3,5-dichloro-benzoylamino)-5-oxo-pentanoylamino]-4-(naphthalen-1-ylcarbamoyl)-butyric acid]", "values": [{"measurement": "IC50", "setting": "[1]", "result": 7, "unit": "nM"}, {"measurement": "IC50", "setting": "[2]", "result": 20, "unit": "nM"}]}
{"smiles": "O=C(O)CC[C@H](NC(=O)CCC(NC(=O)c1cc(Cl)cc(Cl)c1)C(=O)N1CCC2(CCCC2)CC1)C(=O)Nc1cccc2ncccc12", "note": "(stereo partly drawn) [(S)-4-[5-(8-Aza-spiro[4.5]dec-8-yl)-4-(3,5-dichloro-benzoylamino)-5-oxo-pentanoylamino]-4-(quinolin-5-ylcarbamoyl)-butyric acid; hydrochloride]", "values": [{"measurement": "IC50", "setting": "[1]", "result": 76, "unit": "nM"}, {"measurement": "IC50", "setting": "[2]", "result": 136, "unit": "nM"}]}
{"smiles": "O=C(O)CC[C@H](NC(=O)CCC(NC(=O)c1cc(Cl)cc(Cl)c1)C(=O)N1CCC2(CCCC2)CC1)C(=O)Nc1cccc2cccnc12", "note": "(stereo partly drawn) [(S)-4-[5-(8-Aza-spiro[4.5]dec-8-yl)-4-(3,5-dichloro-benzoylamino)-5-oxo-pentanoylamino]-4-(quinolin-8-ylcarbamoyl)-butyric acid; hydrochloride]", "values": [{"measurement": "IC50", "setting": "[1]", "result": 54, "unit": "nM"}, {"measurement": "IC50", "setting": "[2]", "result": 108, "unit": "nM"}]}
{"smiles": "CCCCCN(CCCCC)C(=O)[C@H](CCC(=O)O)NC(=O)CCC(NC(=O)c1cc(Cl)cc(Cl)c1)C(=O)N1CCC2(CCCC2)CC1", "note": "(stereo partly drawn) [(S)-4-[5-(8-Aza-spiro[4.5]dec-8-yl)-4-(3,5-dichloro-benzoylamino)-5-oxo-pentanoylamino]-4-dipentylcarbamoyl-butyric acid]", "values": [{"measurement": "IC50", "setting": "[1]", "result": 48, "unit": "nM"}, {"measurement": "IC50", "setting": "[2]", "result": 135, "unit": "nM"}]}
{"smiles": "CCCN(CCC)C(=O)[C@H](CCC(=O)O)NC(=O)CCC(NC(=O)c1cc(Cl)cc(Cl)c1)C(=O)N1CCC2(CCCC2)CC1", "note": "(stereo partly drawn) [(S)-4-[5-(8-Aza-spiro[4.5]dec-8-yl)-4-(3,5-dichloro-benzoylamino)-5-oxo-pentanoylamino]-4-dipropylcarbamoyl-butyric acid]", "values": [{"measurement": "IC50", "setting": "[1]", "result": 119, "unit": "nM"}, {"measurement": "IC50", "setting": "[2]", "result": 299, "unit": "nM"}]}
{"smiles": "O=C(O)CC[C@H](NC(=O)CCC(NC(=O)c1cc(Cl)cc(Cl)c1)C(=O)N1CCC2(CCCC2)CC1)C(=O)N1CCc2ccccc2C1", "note": "(stereo partly drawn) [(S)-4-[5-(8-Aza-spiro[4.5]dec-8-yl)-4-(3,5-dichloro-benzoylamino)-5-oxo-pentanoylamino]-5-(3,4-dihydro-1H-isoquinolin-2-yl)-5-oxo-pentanoic acid]", "values": [{"measurement": "IC50", "setting": "[1]", "result": 49, "unit": "nM"}, {"measurement": "IC50", "setting": "[2]", "result": 140, "unit": "nM"}]}
{"smiles": "O=C(O)CC[C@H](NC(=O)CCC(NC(=O)c1cc(Cl)cc(Cl)c1)C(=O)N1CCC2(CCCC2)CC1)C(=O)N1CCC2CCCCC2C1", "note": "(stereo partly drawn) [(S)-4-[5-(8-Aza-spiro[4.5]dec-8-yl)-4-(3,5-dichloro-benzoylamino)-5-oxo-pentanoylamino]-5-(octahydro-isoquinolin-2-yl)-5-oxo-pentanoic acid]", "values": [{"measurement": "IC50", "setting": "[1]", "result": 28, "unit": "nM"}, {"measurement": "IC50", "setting": "[2]", "result": 185, "unit": "nM"}]}
{"smiles": "O=C(O)CC[C@H](NC(=O)CCC(NC(=O)c1cc(Cl)cc(Cl)c1)C(=O)N1CCC2(CCCC2)CC1)C(=O)N1CCC2(CCCC2)CC1", "note": "(stereo partly drawn) [(S)-5-(8-Aza-spiro[4.5]dec-8-yl)-4-[5-(8-aza-spiro[4.5]dec-8-yl)-4-(3,5-dichloro-benzoylamino)-5-oxo-pentanoylamino]-5-oxo-pentanoic acid]", "values": [{"measurement": "IC50", "setting": "[1]", "result": 37, "unit": "nM"}, {"measurement": "IC50", "setting": "[2]", "result": 141, "unit": "nM"}]}
{"smiles": "O=C(O)CNC(=O)CCC(NC(=O)c1cc(Cl)cc(Cl)c1)C(=O)N1CCC2(CCCC2)CC1", "note": "(centres undefined) [[5-(8-Aza-spiro[4.5]dec-8-yl)-4-(3,5-dichloro-benzoylamino)-5-oxo-pentanoylamino]-acetic acid]", "values": [{"measurement": "IC50", "setting": "[1]", "result": 1040, "unit": "nM"}, {"measurement": "IC50", "setting": "[2]", "result": 1020, "unit": "nM"}]}
{"smiles": "O=C(CCC(NC(=O)c1cc(Cl)cc(Cl)c1)C(=O)N1CCC2(CCCC2)CC1)NC(C(=O)O)c1ccccc1", "note": "(centres undefined) [[5-(8-Aza-spiro[4.5]dec-8-yl)-4-(3,5-dichloro-benzoylamino)-5-oxo-pentanoylamino]-phenyl-acetic acid]", "values": [{"measurement": "IC50", "setting": "[1]", "result": 80, "unit": "nM"}, {"measurement": "IC50", "setting": "[2]", "result": 390, "unit": "nM"}]}
{"smiles": "CN(CC(=O)O)C(=O)CCC(NC(=O)c1cc(Cl)cc(Cl)c1)C(=O)N1CCC2(CCCC2)CC1", "note": "(centres undefined) [{[5-(8-Aza-spiro[4.5]dec-8-yl)-4-(3,5-dichloro-benzoylamino)-5-oxo-pentanoyl]-methyl-amino}-acetic acid]", "values": [{"measurement": "IC50", "setting": "[1]", "result": 2810, "unit": "nM"}, {"measurement": "IC50", "setting": "[2]", "result": 1570, "unit": "nM"}]}
